The values below come from PubChem BioAssay (NCI).

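Step 1: Grow cells in 96-well plates. Step 2: Expose to compound for 48 hours at 5 concentrations. Step 3: Interpolate endpoints linearly; if unreached, use highest concentration. GI50 is the concentration that inhibits growth by half. Definition used: TGI = concentration required for complete inhibition of growth.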

Among the test systems are SN12C renal; OVCAR-8 ovarian; UACC-62 melanoma; CAKI-1 renal; OVCAR-3 ovarian; COLO 205 colon; K-562 leukemia; HOP-62 NSCLC; BT-549 breast; DU-145 prostate.
Assay in all cases: growth of human tumour cells (NCI), 48 h

As to `N#C/C(=C1\OC(=N)C(c2ccc(Cl)cc2Cl)C1=O)c1ccc(Cl)cc1Cl` (stereo not given), the TGI in the test on SN12C renal, with OVCAR-8 ovarian, with UACC-62 melanoma, in the test on CAKI-1 renal, in the test with OVCAR-3 ovarian and in the test on COLO 205 colon was more than 100 µM each time. Further, in the test on K-562 leukemia, the TGI was more than 100 µM.

For `O=C(CO)C1CC2C=CC1C2` (stereo not given), the TGI with SN12C renal, in the test on HOP-62 NSCLC, with OVCAR-8 ovarian, in the test on UACC-62 melanoma, in the test on CAKI-1 renal and with OVCAR-3 ovarian was more than 100 µM each time. For the same compound, the TGI in the test on COLO 205 colon and with K-562 leukemia was more than 100 µM throughout.

Turning to `COc1ccc2nc3cc(Cl)ccc3c(N3CCN(c4ccnc(N5CCN(C)CC5)n4)CC3)c2c1`, the GI50 with SN12C renal was 2.84 µM; with HOP-62 NSCLC, 3.51 µM; with BT-549 breast, 3.16 µM; in the test with OVCAR-8 ovarian, 1.93 µM; in the test on UACC-62 melanoma, 1.86 µM; in the test with DU-145 prostate, 1.84 µM. Besides, the results for the GI50 with CAKI-1 renal, in the test on OVCAR-3 ovarian and in the test on COLO 205 colon were 1.57 µM, 1.84 µM and 1.94 µM, respectively. The TGI in the test with SN12C renal worked out at 8.37 µM; in the test with HOP-62 NSCLC it was 12.4 µM; in the test on BT-549 breast, 13.4 µM; in the test with OVCAR-8 ovarian it was 3.98 µM; in the test with UACC-62 melanoma it was 3.69 µM; with DU-145 prostate, 3.36 µM. Further, the figures for the TGI in the test on CAKI-1 renal, in the test with OVCAR-3 ovarian and with COLO 205 colon were 3.07 µM, 3.25 µM and 3.67 µM, respectively.

As to `CC(=O)CC(=O)CCC(=O)Nc1cccc(C(F)(F)F)c1`, the TGI with SN12C renal, in the test with HOP-62 NSCLC, in the test with OVCAR-8 ovarian, in the test on UACC-62 melanoma, with CAKI-1 renal and with OVCAR-3 ovarian was more than 100 µM throughout. Besides, the TGI with COLO 205 colon and with K-562 leukemia was more than 100 µM each time.

In the case of `CC(=O)[CH-]C(C)=O.CC(=O)[CH-]C(C)=O.CC(=O)[CH-]C(C)=O.[Ga+3]`, the GI50 in the test with SN12C renal, in the test with OVCAR-8 ovarian, in the test on UACC-62 melanoma, in the test with CAKI-1 renal, in the test on OVCAR-3 ovarian and in the test on COLO 205 colon was more than 100 µM in each case. The TGI with SN12C renal, with OVCAR-8 ovarian, with UACC-62 melanoma, in the test on CAKI-1 renal, in the test on OVCAR-3 ovarian and with COLO 205 colon was more than 100 µM in each case.

On to `CC(C)OC(=O)C1Cc2c([nH]c3ccccc23)C(c2ccccc2)N1` (stereo not given), for which the TGI in the test on SN12C renal is more than 100 µM; in the test with HOP-62 NSCLC, 69.9 µM; in the test with OVCAR-8 ovarian, more than 100 µM; in the test on UACC-62 melanoma it was more than 100 µM; in the test with CAKI-1 renal it was more than 100 µM; with OVCAR-3 ovarian it was more than 100 µM. The TGI with COLO 205 colon and with K-562 leukemia was more than 100 µM in each case.

In the case of `Cc1ccc(C2=Nc3ccccc3SC(c3cccc4c3OCO4)C2)cc1` (stereo not given), the TGI with SN12C renal was 41 µM; in the test with HOP-62 NSCLC it was more than 100 µM; in the test on OVCAR-8 ovarian, 65.3 µM; with UACC-62 melanoma, 41.9 µM; with CAKI-1 renal it was 30 µM; with OVCAR-3 ovarian, 28.5 µM. The TGI in the test on COLO 205 colon was found to be 35.6 µM; with K-562 leukemia, 38.3 µM.

For the compound `O=C(c1c(O)cc(O)cc1O)C1Cc2ccccc21` (stereo not given), the TGI in the test with SN12C renal, in the test on HOP-62 NSCLC, with OVCAR-8 ovarian, with UACC-62 melanoma, in the test with CAKI-1 renal and with COLO 205 colon was more than 100 µM throughout. In addition, in the test with K-562 leukemia, the TGI is more than 100 µM.

Turning to `CC(=O)OCC(CC[CH2][Sn]([Cl])([Cl])[c]1ccccc1)OC(C)=O` (stereo not given), the GI50 with SN12C renal was 21 µM; in the test with HOP-62 NSCLC, 23.9 µM; with OVCAR-8 ovarian, 17.5 µM; in the test with UACC-62 melanoma, 12.6 µM; in the test on CAKI-1 renal it was 14.6 µM; in the test with OVCAR-3 ovarian it was 20 µM. Further, the GI50 in the test on COLO 205 colon is 17.3 µM; in the test on K-562 leukemia it was 24.9 µM. For the same compound, the TGI was 41 µM with SN12C renal; 46.8 µM in the test on HOP-62 NSCLC; 32.9 µM with OVCAR-8 ovarian; 25.6 µM with UACC-62 melanoma; 30.9 µM in the test with CAKI-1 renal; 42.8 µM in the test on OVCAR-3 ovarian. Also, the values for the TGI in the test on COLO 205 colon and with K-562 leukemia were 31.2 µM and 71.8 µM, respectively.

On to `C[P+]1(c2ccccc2)CCCCC1`, for which the TGI in the test on SN12C renal, with HOP-62 NSCLC, in the test on OVCAR-8 ovarian, in the test on UACC-62 melanoma, with CAKI-1 renal and in the test with OVCAR-3 ovarian was more than 100 µM each time. The TGI in the test with COLO 205 colon and in the test with K-562 leukemia was more than 100 µM each time.

In the case of `O=[N+]([O-])/C=C/c1ccc(Cl)cc1Cl`, the TGI with HOP-62 NSCLC stood at 28.6 µM; in the test with OVCAR-8 ovarian, 67.7 µM; with UACC-62 melanoma, 31.3 µM; with CAKI-1 renal it was 29.8 µM; in the test with OVCAR-3 ovarian, 53.6 µM; in the test with COLO 205 colon, 38.9 µM. The compound also displayed a TGI in the test with K-562 leukemia of 9.94 µM.

On to `CC1CCC2(C)C(CC=C(C=O)C2(O)C=O)C12CO2` (stereo not given), for which the TGI with SN12C renal amounted to 8.59 µM; in the test with HOP-62 NSCLC, 40.3 µM; in the test on OVCAR-8 ovarian, 6.69 µM; in the test on UACC-62 melanoma, 4.02 µM; in the test on CAKI-1 renal, 11 µM; with OVCAR-3 ovarian, 2.6 µM. Besides, the TGI in the test on COLO 205 colon came out at 4.29 µM; in the test with K-562 leukemia, 4.67 µM.

Take `O=C(Cc1ccccc1)C(c1ccccc1)S(=O)(=O)c1ccccc1` (stereo not given): the TGI in the test with SN12C renal, with HOP-62 NSCLC, in the test on OVCAR-8 ovarian, in the test on UACC-62 melanoma, in the test with CAKI-1 renal and in the test with OVCAR-3 ovarian was more than 100 µM in each case. Further, the TGI with COLO 205 colon and with K-562 leukemia was more than 100 µM each time.

Regarding `O=C1C(Sc2ccc3ccccc3c2)=C(Sc2ccc3ccccc3c2)C(=O)c2ccccc21`, the TGI in the test with SN12C renal was 24.7 µM; in the test with HOP-62 NSCLC, 27.8 µM; in the test with BT-549 breast, 83.2 µM; in the test on OVCAR-8 ovarian, 22.2 µM; in the test on UACC-62 melanoma, 14.2 µM; in the test with DU-145 prostate, 84.4 µM. Also, the TGI in the test on COLO 205 colon worked out at 12.8 µM; in the test on K-562 leukemia, 19 µM.

Regarding `CC(N)CC(=O)O` (stereo not given), the TGI with SN12C renal, with UACC-62 melanoma, in the test on OVCAR-3 ovarian, in the test with COLO 205 colon and in the test on K-562 leukemia was more than 5000 µM throughout.

`Cc1cc2c(c(=O)o1)C1=S(SC(c3ccccc3)=C1)S2` (stereo not given): the TGI is more than 100 µM with SN12C renal; 45.5 µM with HOP-62 NSCLC; more than 100 µM with BT-549 breast; more than 100 µM in the test with OVCAR-8 ovarian; more than 100 µM in the test with UACC-62 melanoma; more than 100 µM in the test with DU-145 prostate. The TGI with OVCAR-3 ovarian was 75.2 µM; with COLO 205 colon, more than 100 µM; with K-562 leukemia, more than 100 µM.

Turning to `c1ccc(-c2csc3ncn4cnnc4c23)cc1`, the TGI in the test on SN12C renal, in the test on OVCAR-8 ovarian, in the test on UACC-62 melanoma, in the test on OVCAR-3 ovarian, in the test on COLO 205 colon and in the test with K-562 leukemia was more than 100 µM in each case.

Turning to `C[C@H]1CN(C2COC2)CCN1c1ccc(Nc2cc(-c3ccnc(N4CCn5c(cc6c5CC(C)(C)C6)C4=O)c3CO)cn(C)c2=O)nc1`, the GI50 with SN12C renal is 49.9 µM; in the test on HOP-62 NSCLC, 39.1 µM; in the test on BT-549 breast, 17.7 µM; in the test on OVCAR-8 ovarian, 54.3 µM; in the test on UACC-62 melanoma, 23.2 µM; in the test on DU-145 prostate it was 45.9 µM. Moreover, the GI50 in the test with CAKI-1 renal is 27.9 µM; in the test with OVCAR-3 ovarian it was 37.4 µM; in the test with COLO 205 colon it was 27.1 µM. For the same compound, the TGI with SN12C renal was more than 100 µM; with HOP-62 NSCLC, more than 100 µM; in the test on BT-549 breast it was 55.1 µM; in the test on OVCAR-8 ovarian it was more than 100 µM; in the test with UACC-62 melanoma, 82.3 µM; with DU-145 prostate, more than 100 µM. For the same compound, the TGI with CAKI-1 renal, in the test with OVCAR-3 ovarian and with COLO 205 colon was more than 100 µM in each case.

Take `CCOC(=O)C(CCCNC(=O)OC(C)(C)C)N(Cc1ccc(OC)cc1OC)C(=O)CC(=O)CP(=O)(OCC)OCC` (stereo not given): the TGI in the test on SN12C renal, in the test on HOP-62 NSCLC, in the test on OVCAR-8 ovarian, in the test with UACC-62 melanoma, in the test with CAKI-1 renal and in the test on OVCAR-3 ovarian was more than 100 µM in each case. For the same compound, the TGI with COLO 205 colon and in the test on K-562 leukemia was more than 100 µM throughout.

On to `C/C(=N\NC(=O)C(N)=O)c1c(O)cc(C)oc1=O`, for which the TGI with SN12C renal, with HOP-62 NSCLC, in the test on OVCAR-8 ovarian, in the test on UACC-62 melanoma and with K-562 leukemia was more than 100 µM throughout.

Take `C=C1C=CC2(Br)OC3CC(C)(Cl)C(Br)CC13C2(C)C` (stereo not given): the TGI in the test with SN12C renal was 37.7 µM; with HOP-62 NSCLC it was 48 µM; with OVCAR-8 ovarian it was 77.1 µM; in the test with UACC-62 melanoma, 34.3 µM; in the test on CAKI-1 renal, more than 100 µM; in the test with OVCAR-3 ovarian it was 40.8 µM. Besides, the TGI worked out at 30.9 µM in the test with COLO 205 colon and 36.8 µM in the test on K-562 leukemia.
